Source: patent US20050004007A1, “Promotion of adoptosis in cancer cells by co-administration of cyclin dependent kinase inhibitiors and cellular differentiation agents” (priority 2000, published 2005)

Legend:
[1] = test system: HL60 human leukemia cells; assay: loss of mitochondrial membrane potential (DiOC6 uptake); format: cell-based; settings: 3, 5, or 10 μM ATRA and 80 nM FP
Experimental: Assessment of mitochondrial membrane potential. At designated times, 1 ml aliquots of cells (2×10^5) were harvested and incubated with 40 nM DiOC6 for 15 minutes at 25° C. as previously described [Zamzami et al 1995]or at 37° C. Samples were analyzed using a Becton Dickinson FACScan flow cytometer (excitation λ=488 nm; emission λ=525 nm). […] Data acquisition and analysis was performed using […] Software (Becton Dickinson, Mansfield, Mass.).

[2] = test system: U937 human leukemia cells; assay: morphological assessment of apoptosis (Wright and Giemsa-stained cytospin); format: cell-based
From the text: Cell culture. The myelomonocytic leukemia cell line U937 was derived from a patient with histiocytic lymphoma and was obtained from American Type Culture Collection. The HL-60 cell line was derived from a patient with acute promyelocytic leukemia as previously described [Grant et al. 1992]. U937 and HL-60 cells were maintained in logarithmic growth phase by culturing in suspension in phenol red-free RPMI-1640 (Life Technologies, Inc., Grand Island, N.Y.) and 10% (v/v) fetal calf serum (Hyclone, Logan, Utah), in a humidified atmosphere (95% air/5% CO2) at 37° C. To obtain antisense-expressing cell lines, U937 cells were transfected by electroporation with a pREP4 vector (Invitrogen; Carlsbad, Calif.) or the pREP4 vector containing the p21^WAF1/CIP1 coding region in an antisense orientation as previously described [Wang et al. 1999]. […]
Morphological assessment of apoptosis. U937 cells were evaluated for apoptosis by morphological assessment of Wright and Giemsa-stained cytospin preparations. At designated times, cells were transferred to slides by cytocentrifugation, fixed, stained, and evaluated under light microscopy for treatment-induced apoptosis. […] Five or more randomly selected fields, encompassing a total≧500 cells/slide, were evaluated to determine the percentage of apoptotic cells for each treatment condition.

pRb/E2F complexes = assay: pRb immunoprecipitation and EMSA of E2F in U937 cells; format: cell-based, human; settings: 8 h exposure; 10 nM PMA, 100 nM FP, 1 mM SB
Experimental: Electrophoretic Mobility Shift Assay (EMSA) and Immunoprecipitation (IP). Whole-cell extracts were prepared as previously described [Bagchi et al. 1990] and EMSA following IP was performed as previously reported [Chellapan et al. 1991]. Whole cell extracts (150 μg) were combined with 4 μl of anti-RB monoclonal antibody (Calbiochem) for the IP. Immunoprecipitated proteins were recovered on Protein A sepharose beads and dissociated by treatment with deoxycholate. The presence of E2F in the IP was monitored by EMSA as previously noted [Yee et al. 1987].
Immunoprecipitation and EMSA. Whole-cell extracts were prepared by hypotonic shock followed by salt extraction, as described previously (Chellappan et al., 1991). Portions (50 to 200 μg) of whole-cell extracts were treated with 5 μl of the appropriate primary antibody in a volume of 100 μl at 4° C. for 1 h. Then, 3 mg of protein A-Sepharose or protein G-Sepharose in a 100-μl volume was added and incubated for an additional hour. The binding was performed in a buffer containing 20 mM HEPES (pH 7.9), 40 mM KCl, 1 mM MgCl2, 0.1 mM EGTA, 0.1 mM EDTA, 0.1 mM DTT, 0.1 mM NaF, 0.1 mM Na3VO4, 0.5% NP-40, and 3 mg of BSA per ml. The beads were washed six times with 600 μl of the same buffer and boiled in 20 μl of SDS sample buffer. […] The gel was dried, and the bands were detected by autoradiography.

CN1CC[C@H](c2c(O)cc(O)c3c(=O)cc(-c4ccccc4Cl)oc23)[C@H](O)C1 [FP, Flavopiridol]
loss of mitochondrial membrane potential (Δψm) [1]: no effect | percentage of apoptotic cells ([2]; FP concentrations ≦100 nM, regardless of treatment interval (6-24 h)): ≤ 10% | induction of apoptosis ([2]; FP concentrations ≧200 nM, chronic exposures (12 or 24 h)): susceptible to apoptosis | E2F binding to labeled probe after pRb immunoprecipitation (pRb/E2F complexes): clear reduction in E2F binding
